Measurements from patent US5962417A, “Methods of modulating melanin synthesis” (Trustees of Boston University, priority 1998, dated 1999).

How the values were obtained:
TRP 1 = tested on: TRP 1
Procedure: (§1) To investigate whether PKC regulates other melanogenic proteins such as tyrosinase related proteins (TPR 1 and TPR 2), melanocytes were treated with 10^-7 M TPA for 2 weeks, a condition known to deplete PKC, and TRP 1 and TRP 2 protein levels were determined using immunoblot analysis with specific antibodies. […] TRP 1 and TRP 2 were immunoprecipitated and incorporation of ^3 H-glycosamine into these proteins was examined.

TRP 2 = target: TRP 2
Procedure: as §1

[1] = 10^-7 M TPA for 2 weeks (PKC depletion), melanocytes
[2] = TPA for 2 weeks, melanocytes labeled with 3H-glycosamine

With `CCCCCCCCCCCCCC(=O)O[C@@H]1[C@@H](C)[C@@]2(O)[C@@H](C=C(CO)C[C@]3(O)C(=O)C(C)=C[C@@H]23)[C@@H]2C(C)(C)[C@]12OC(C)=O` [TPA, tetraphorbol acetate] the “effect on TRP 1 protein level” value (TRP 1; [1]) was “no effect”, the “effect on glycosylated or non-glycosylated form of TRP 1 (3H-glycosamine labeling)” value (TRP 1; [2]) was “did not affect” and the “effect on 65 kd non-glycosylated TRP 2 precursor” value (TRP 2; [1]) was “unaffected”. For the same compound, the “reduction of level of glycosylated mature form of TRP 2 (80 kd)” value (TRP 2; [1]) was 50-70% and the “reduction of 3H-glycosamine incorporation into TRP 2” value (TRP 2; [2]) was over 50%.
